One test has as its target T1, wild type Kit (Homo sapiens, UniProt P10721).
T1 construct: purchased Carna Bioscience 08-156
The experiment in a line: Kit wild type assay at Km (Caliper electrophoretic mobility shift). It counts as biochemical. To be noted: 400 uM ATP, 25 C, 90 minutes; read-out: WT KIT. As for the experimental part: In order to assess the activity of chemical compounds against the relevant kinase of interest, the Caliper LifeSciences electrophoretic mobility shift technology platform is used. Fluorescently labeled substrate peptide is incubated in the presence of kinase and ATP so that a […] proportion of the peptide is phosphorylated. At the end of the reaction, the mix of phosphorylated (product) and non-phosphorylated (substrate) peptides are passed through the microfluidic system of the Caliper EZ Reader 2, under an applied potential difference. The presence of the phosphate group on the product peptide provides a difference in mass and charge between those of the substrate peptide, resulting in a separation of the substrate and product pools in the sample. As the pools pass a LEDS within the instrument, these pools are detected and resolved as separate peaks. The ratio between these peaks therefore reflects the activity of the chemical matter at that concentration in that well, under those conditions.
The reaction was stopped by the addition of 70 ul of Stop buffer (100 mM HEPES pH 7.5, 0.015% Brij 35, 35 mM EDTA and 0.2% of Coating Reagent 3 (Caliper Lifesciences)). The plate was then read on a Caliper EZReader 2 (protocol settings: −1.9 psi, upstream voltage −700, downstream voltage −3000, post sample sip 35 s).

In another test the target is T2, D816V Kit (Homo sapiens, UniProt P10721, D816V).
T2 construct: purchased Carna Bioscience 08-156
T2 sequence (P10721 26-976 D816V): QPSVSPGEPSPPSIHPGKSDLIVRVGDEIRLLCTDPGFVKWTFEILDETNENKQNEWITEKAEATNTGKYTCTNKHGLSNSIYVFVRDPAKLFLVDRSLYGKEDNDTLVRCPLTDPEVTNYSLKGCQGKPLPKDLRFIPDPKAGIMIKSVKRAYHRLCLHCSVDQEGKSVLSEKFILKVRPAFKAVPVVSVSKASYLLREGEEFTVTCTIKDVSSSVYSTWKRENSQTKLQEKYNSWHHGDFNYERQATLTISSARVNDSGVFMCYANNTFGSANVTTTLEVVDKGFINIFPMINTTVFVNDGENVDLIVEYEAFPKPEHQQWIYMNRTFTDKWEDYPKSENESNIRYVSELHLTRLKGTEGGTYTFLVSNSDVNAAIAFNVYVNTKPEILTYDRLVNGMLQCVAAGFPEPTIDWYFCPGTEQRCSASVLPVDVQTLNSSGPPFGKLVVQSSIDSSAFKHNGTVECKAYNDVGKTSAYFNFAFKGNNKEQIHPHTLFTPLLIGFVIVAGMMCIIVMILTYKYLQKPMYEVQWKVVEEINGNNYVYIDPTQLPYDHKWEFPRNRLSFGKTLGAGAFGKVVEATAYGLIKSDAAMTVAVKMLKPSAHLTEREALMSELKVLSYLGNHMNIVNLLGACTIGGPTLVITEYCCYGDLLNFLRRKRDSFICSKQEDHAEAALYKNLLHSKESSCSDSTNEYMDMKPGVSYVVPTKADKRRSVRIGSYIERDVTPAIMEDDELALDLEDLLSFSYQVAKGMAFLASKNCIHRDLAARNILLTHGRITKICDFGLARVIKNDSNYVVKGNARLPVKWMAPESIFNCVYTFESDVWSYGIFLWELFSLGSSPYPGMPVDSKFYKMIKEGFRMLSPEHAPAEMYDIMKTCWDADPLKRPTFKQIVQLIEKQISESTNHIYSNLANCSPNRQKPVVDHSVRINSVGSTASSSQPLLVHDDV
The experiment in a line: Kit D816V assay at Km (Caliper electrophoretic mobility shift). It counts as biochemical. To be noted: 15 uM ATP, 25 C, 90 minutes. A digest of the protocol:
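Read-out is the ratio of phosphorylated to unphosphorylated fluorescent peptide, resolved by mobility shift on a Caliper EZ Reader 2.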

The target of test [1] is T3, Kit D816V (HMC1.2 cells, Kit V560G and D816V) (Homo sapiens, UniProt P10721, D816V/V560G).
T3 construct: endogenous in cells; host or cells: HMC1.2 cells
T3 sequence (P10721 26-976 V560G/D816V): as the sequence (P10721 26-976 D816V) above, with V535G counted along it
The test is described as follows: HMC1.2 autophosphorylation assay (AlphaLISA, phospho-Y719 c-Kit). The format is cell-based. The settings on record: Kit autophosphorylation at tyrosine 719, 90 minutes, read-out: Cellular Activity. The gist of the method:
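AlphaScreen signal comes from lysed HMC1.2 cells incubated with phospho-Y719 and total c-Kit antibodies (15 nM final), acceptor beads and then streptavidin donor beads, 2 h each at room temperature. Beforehand, cells deprived of serum overnight received compound for 90 min as a 10-point series, 25 uM–95.4 pM, 0.25% DMSO.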
(In general: Alpha assays give light when donor and acceptor beads are brought close together.)

Results on 44 compounds are retold here after patent US9334263B2, “Compositions useful for treating disorders related to kit” (BLUEPRINT MEDICINES CORPORATION, priority 2013, dated 2016).

Structures are written as SMILES. Bounds are passed on as bounds.

T1 sequence (P10721 26-976): as the sequence (P10721 26-976 D816V) above, with V791D counted along it

With `c1ccc(Cc2cnc(N3CCN(c4ncnc(Nc5ccc6c(c5)CNCC6)n4)C(Cc4ccccc4)C3)nc2)cc1` (stereo not shown) [Compound 274], the IC50 at wild type Kit was in the range of 100 to 1000 nM; at D816V Kit, 10 to 100 nM.

Regarding `COc1cc(Nc2ncnc(N3CCN(c4ncc(Cc5ccccc5)cn4)CC3)n2)cc(OC)c1` [Compound 54], the values for the IC50 on wild type Kit and on D816V Kit were 100 to 1000 nM and 1.01 to 10 nM, respectively.

For the compound `CS(=O)(=O)c1ccc(Nc2ncnc(N3CCN(C(=O)Nc4ccc(C#N)cc4)CC3)n2)cc1` [Compound 40], the IC50 on wild type Kit lay within 11 to 100 nM; on D816V Kit it was 10 to 100 nM.

As to `CN1CCC(CCNc2ncnc(N3CCN(c4ncc(Cc5ccccc5)cn4)CC3)n2)CC1` [Compound 35], the IC50 was greater than 10000 nM in test [1] and greater than 100 nM on D816V Kit.

Regarding `O[C@@H](c1ccccc1)c1cnc(N2CCN(c3ncnc(Nc4cnn(CC5CNCCO5)c4)n3)CC2)nc1` (stereo partly drawn) [Compound 189, (S)-(2-(4-(4-(1-(morpholin-2-ylmethyl)-1H-pyrazol-4-ylamino)-1,3,5-triazin-2-yl)piperazin-1-yl)pyrimidin-5-yl)(phenyl)methanol], the values for the IC50 (in test [1]; on D816V Kit) were 10 to 100 nM and less than 1 nM, respectively.

Turning to `OCCNc1ccc(Nc2ncnc(N3CCN(c4ncc(Cc5ccccc5)cn4)CC3)n2)cn1` [Compound 58], the values for the IC50 (in test [1]; at D816V Kit) were 100 to 1000 nM and 1.01 to 10 nM, respectively.

Take `C[C@](O)(c1ccc(F)cc1)c1cnc(N2CCN(c3ncnc(Nc4cnn(C[C@@H]5CNCCO5)c4)n3)CC2)nc1` [Compound 269]: the IC50 is 10 to 100 nM in test [1] and less than 1 nM on D816V Kit.

On to `Cc1c(Nc2ncnc(N3CCN(c4ncc(C(C)c5ccccc5)cn4)CC3)n2)cnn1C[C@@H]1CNCCO1` (stereo partly shown) [Compound 243], for which the IC50 in test [1] fell in the range of 10 to 100 nM; on D816V Kit it was 1.01 to 10 nM.

For `COc1cc(N2CCNCC2)ccc1Nc1ncnc(N2CCN(c3ncc(Cc4ccccc4)cn3)CC2)n1` [Compound 230], the IC50 is 1000 to 10000 nM in test [1] and 1.01 to 10 nM at D816V Kit.

With `c1cnc(N2CCN(c3ncnc(Nc4cnn(C[C@@H]5CNCCO5)c4)n3)CC2)nc1` [Compound 6], the IC50 is greater than 10000 nM in test [1] and greater than 100 nM on D816V Kit.

For the compound `COc1ccccc1Cc1cnc(N2CCN(c3ncnc(Nc4ccc5c(c4)CNCC5)n3)CC2)nc1` [Compound 113], the values for the IC50 (in test [1]; at D816V Kit) were 100 to 1000 nM and 1.01 to 10 nM, respectively.

Consider `c1ccc(Nc2cnc(N3CCN(c4ncnc(Nc5cnn(C[C@@H]6CNCCO6)c5)n4)CC3)nc2)cc1` [Compound 135], for which the IC50 in test [1] lay in the range of 10 to 100 nM; on D816V Kit, 1.01 to 10 nM.

Regarding `Fc1ccccc1Sc1cnc(N2CCN(c3ncnc(Nc4cnn(C[C@@H]5CNCCO5)c4)n3)CC2)nc1` [Compound 255], the figures for the IC50 (in test [1]; on D816V Kit) were 10 to 100 nM and less than 1 nM, respectively.

Regarding `c1ccc(Cc2cnc(N3CCN(c4ncnc(Nc5ccc6c(c5)CCCNC6)n4)CC3)nc2)cc1` [Compound 72], the values for the IC50 (in test [1]; at D816V Kit) were 10 to 100 nM and less than 1 nM, respectively.

Regarding `c1ccc(Cc2cnc(N3CCN(c4ncnc(Nc5ccc6c(c5)CNCC65CC5)n4)CC3)nc2)cc1` [Compound 97], the IC50 is 10 to 100 nM in test [1] and less than 1 nM at D816V Kit.

Take `Cc1nn(C[C@H](C)O)cc1Nc1ncnc(N2CCN(c3ncc(Sc4ccccc4F)cn3)CC2)n1` [Compound 153]: the IC50 in test [1] is 10 to 100 nM; at D816V Kit it was less than 1 nM.

Take `C[C@](N)(c1ccc(F)cc1)c1cnc(N2CCN(c3ncnc(Nc4ccccc4)n3)CC2)nc1` [Compound 29]: the IC50 in test [1] was 10 to 100 nM; at D816V Kit it was less than 1 nM.

As for `C[C@H](O)CN1CCc2ccc(Nc3ncnc(N4CCN(c5ncc(Cc6ccccc6)cn5)CC4)n3)cc2C1` [Compound 221], the IC50 is less than 10 nM in test [1] and less than 1 nM at D816V Kit.

On to `Cc1nn(C2COC2)cc1Nc1ncnc(N2CCN(c3ncc(Sc4ccccc4F)cn3)CC2)n1` [Compound 146], for which the figures for the IC50 (in test [1]; on D816V Kit) were 10 to 100 nM and 1.01 to 10 nM, respectively.

On to `OC[C@@H](O)COc1cccc(Nc2ncnc(N3CCN(c4ncc(Cc5ccccc5)cn4)CC3)n2)c1` [Compound 130], for which the IC50 in test [1] was 10 to 100 nM; at D816V Kit it was 1.01 to 10 nM.

On to `Cc1c(Nc2ncnc(N3CCN(c4ncc(Sc5ccccc5F)cn4)CC3)n2)cnn1C1COC1` [Compound 147], for which the IC50 in test [1] fell in the range of 100 to 1000 nM; at D816V Kit, 1.01 to 10 nM.

Turning to `C[C@@](O)(c1ccccc1)c1cnc(N2CCN(c3ncnc(Nc4ccc(N5CCOCC5)cc4)n3)CC2)nc1` [Compound 234], the IC50 is 10 to 100 nM in test [1] and 1.01 to 10 nM on D816V Kit.

Consider `C[C@](N)(c1ccc(F)cc1)c1cnc(N2CCN(c3ncnc(Nc4ccc([C@@H](O)CO)cc4)n3)CC2)nc1` [Compound 195], for which the IC50 was less than 10 nM in test [1] and less than 1 nM at D816V Kit.

As for `CC(C)(O)[C@@H](O)c1ccc(Nc2ncnc(N3CCN(c4ncc(Cc5ccccc5)cn4)CC3)n2)cc1` [Compound 122], the IC50 in test [1] is 10 to 100 nM; at D816V Kit, less than 1 nM.

On to `Nc1nc(N2CCN(c3ncnc(Nc4ccc5c(c4)CN(CCO)CC5)n3)CC2)ncc1Cc1ccccc1` [Compound 229], for which the IC50 in test [1] was less than 10 nM; on D816V Kit, less than 1 nM.

Consider `OC1(c2ccc(Nc3ncnc(N4CCN(c5ncc(Cc6ccccc6)cn5)CC4)n3)cc2)CCCNC1` (stereo not shown) [Compound 236], for which the results for the IC50 (in test [1]; on D816V Kit) were less than 10 nM and less than 1 nM, respectively.

As for `Cc1[nH]ncc1Nc1ncnc(N2CCN(c3ncc(Sc4ccccc4F)cn3)CC2)n1` [Compound 20], the results for the IC50 (in test [1]; on D816V Kit) were 10 to 100 nM and less than 1 nM, respectively.

Consider `Cc1c(Nc2ncnc(N3CCN(c4ncc(Sc5ccccc5F)cn4)CC3)n2)cnn1C[C@H](C)O` [Compound 154], for which the IC50 fell in the range of 10 to 100 nM in test [1] and 1.01 to 10 nM at D816V Kit.

Regarding `Cn1cc(Nc2ncnc(N3CCN(c4ncc([C@@](C)(N)c5ccc(F)cc5)cn4)CC3)n2)cn1` [Compound 36], the IC50 in test [1] is less than 10 nM; at D816V Kit, less than 1 nM.

On to `CC(C)(O)Cn1cc(Nc2ncnc(N3CCN(c4ncc(C(C)(C)c5ccc(F)cc5)cn4)CC3)n2)cn1` [Compound 201], for which the IC50 in test [1] was 10 to 100 nM; at D816V Kit, less than 1 nM.

As to `C[C@@H](O)Cn1cc(Nc2ncnc(N3CCN(c4ncc(Cc5ccccc5)cn4)CC3)n2)cn1` [Compound 32], the IC50 in test [1] lay in the range of 10 to 100 nM; on D816V Kit, 1.01 to 10 nM.

Turning to `c1ccc(Cc2cnc(N3CCN(c4ncnc(Nc5cnn(C6CNC6)c5)n4)CC3)nc2)cc1` [Compound 27], the IC50 in test [1] was 10 to 100 nM; at D816V Kit it was 1.01 to 10 nM.

Turning to `CC(C)(O)[C@H](O)c1ccc(Nc2ncnc(N3CCN(c4ncc(Cc5ccccc5)cn4)CC3)n2)cc1` [Compound 121], the IC50 was 10 to 100 nM in test [1] and less than 1 nM at D816V Kit.

Take `CC(c1ccccc1)c1cnc(N2CCN(c3ncnc(Nc4ccc5c(c4)CNCC5)n3)CC2)nc1` (stereo not shown) [Compound 71]: the IC50 is 10 to 100 nM in test [1] and less than 1 nM at D816V Kit.

Consider `OCc1nc(N2CCN(c3ncnc(Nc4ccc5c(c4)CNCC5)n3)CC2)ncc1Cc1ccccc1` [Compound 110], for which the IC50 in test [1] was 10 to 100 nM; on D816V Kit, less than 1 nM.

As for `CC(C)(O)Cn1cc(Nc2ncnc(N3CCN(c4ncc([C@](C)(O)c5ccc(F)cc5)cn4)CC3)n2)cn1` [Compound 207], the results for the IC50 (in test [1]; on D816V Kit) were 10 to 100 nM and less than 1 nM, respectively.

In the case of `O=C(c1ccccc1)c1cnc(N2CCN(c3ncnc(Nc4cnn(CC5CNCCO5)c4)n3)CC2)nc1` (stereo not shown) [Compound 178], the IC50 was 100 to 1000 nM in test [1] and 1.01 to 10 nM at D816V Kit.

Take `CC(C)(O)Cn1cc(Nc2ncnc(N3CCN(c4ncc(Cc5ccccc5)cn4)CC3)n2)cn1` [Compound 62]: the values for the IC50 (in test [1]; on D816V Kit) were 10 to 100 nM and less than 1 nM, respectively.

Turning to `CN1CCNC[C@H]1Cn1cc(Nc2ncnc(N3CCN(c4ncc(Cc5ccccc5)cn4)CC3)n2)cn1` [Compound 176], the IC50 in test [1] lay in the range of 10 to 100 nM; at D816V Kit it was 1.01 to 10 nM.

As to `OC[C@H](O)COc1cccc(Nc2ncnc(N3CCN(c4ncc(Cc5ccccc5)cn4)CC3)n2)c1` [Compound 132], the IC50 in test [1] is 10 to 100 nM; on D816V Kit, less than 1 nM.

`CC(O)(c1ccccc1)c1cnc(N2CCN(c3ncnc(Nc4cnn(C[C@@H]5CNCCO5)c4)n3)CC2)nc1` (stereo partly shown) [Compound 250]: the IC50 was 10 to 100 nM in test [1] and less than 1 nM at D816V Kit.

Consider `CC1(C(O)c2ccc(Nc3ncnc(N4CCN(c5ncc(Cc6ccccc6)cn5)CC4)n3)cc2)COC1` (stereo not shown) [Compound 172], for which the IC50 in test [1] was 10 to 100 nM; at D816V Kit, less than 1 nM.

On to `Cc1c(Nc2ncnc(N3CCN(c4ncc([C@@](C)(O)c5ccc(F)cc5)cn4)CC3)n2)cnn1C[C@@H]1CNCCO1` [Compound 276], for which the IC50 in test [1] lay in the range of 10 to 100 nM; on D816V Kit, 1.01 to 10 nM.

Turning to `Brc1cnc(N2CCN(c3ncnc(Nc4cnn(C[C@@H]5CNCCO5)c4)n3)CC2)nc1` [Compound 91], the results for the IC50 (in test [1]; at D816V Kit) were 1000 to 10000 nM and 1.01 to 10 nM, respectively.
